Here are results for eight compounds from ChEMBL document CHEMBL1133412, “Rational design, synthesis and structure-activity relationships of antitumor (E)-2-benzylidene-1-tetralones and (E)-2-benzylidene-1-indanones” (Bioorg Med Chem Lett, 2000).

What all share (type): functional, cell-based
For experiment [1], the system named is A549. Put plainly: Cytotoxicity evaluated against A549 tumor cell lines; significant activity. Conditions: Homo sapiens.
For experiment [2], the system named is B16. Put plainly: Cytotoxicity was evaluated against B16 tumor cell lines; Significant activity. Conditions: Mus musculus.
For experiment [3], the system named is CCRF-CEM. Nature of the experiment: Cytotoxicity evaluated against CEM tumor cell lines; Significant activity. Conditions: Homo sapiens.
Experiment [4] deals with NCI-H596. Put plainly: Cytotoxicity evaluated against H596 tumor cell lines; Significant activity. Conditions: Homo sapiens.
For experiment [5], the system named is NCI-H292. Put plainly: Cytotoxicity evaluated against H292 tumor cell lines; Significant activity. Conditions: Homo sapiens.
Experiment [6] has as its system HL-60. Put plainly: Cytotoxicity evaluated against HL-60 tumor cell lines; Significant activity. Conditions: Homo sapiens.
Experiment [7] has as its system Jurkat. Put plainly: In vitro test for antitumor activity against human Jurkat cell line using a formazan dye (MTT) conversion assay.
Experiment [8] deals with K562. Nature of the experiment: Cytotoxicity evaluated against K562 tumor cell lines; Significant activity. Conditions: Homo sapiens.
Experiment [9] concerns L1210. Nature of the experiment: Cytotoxicity evaluated against L1210 tumor cell lines; Significant activity. Conditions: Mus musculus.
For experiment [10], the system named is MCF7. Nature of the experiment: Cytotoxicity evaluated against MCF-7 tumor cell lines; Significant activity. Conditions: Homo sapiens.
The test system of experiment [11] is MOLT-4. Nature of the experiment: Cytotoxicity was evaluated against Molt-4 tumor cell lines. Conditions: Homo sapiens.
Experiment [12] concerns NIH3T3. Nature of the experiment: Cytotoxicity evaluated against NIH3T3 tumor cell lines; Significant activity. Conditions: Mus musculus.
For experiment [13], the system named is WI-38. Nature of the experiment: Cytotoxicity evaluated against WI38 tumor cell lines; Significant activity. Conditions: Homo sapiens.
Experiment [14] relates to WIL2. Put plainly: Cytotoxicity evaluated against WIL2 tumor cell lines; Significant activity. Conditions: Homo sapiens.

As for `COc1cccc(/C=C2\Cc3cc(OC)c(OC)cc3C2=O)c1`, the Cytotoxicity result in experiment [1], in experiment [2], in [3], in [4], in [5] and in experiment [6] was “Significant activity” throughout. Also, the Cytotoxicity result in [8], in experiment [9], in [10], in experiment [11], in [12] and in experiment [13] was “Significant activity” throughout. The Cytotoxicity entry in experiment [14] was “Significant activity”. For the same compound, the IC50 (in general, the concentration needed to halve the response being measured) in experiment [7] stood at 12.8 µM.
Turning to `COc1cc2c(cc1OC)C(=O)/C(=C/c1cc([N+](=O)[O-])cc([N+](=O)[O-])c1)CC2`, the Cytotoxicity result in [1], in experiment [2], in experiment [3], in [4], in [5] and in experiment [6] was “Significant activity” in each case. In addition, the Cytotoxicity result in experiment [8], in experiment [9], in experiment [10], in [11], in experiment [12] and in experiment [13] was “Significant activity” throughout. In experiment [14], the Cytotoxicity result is “Significant activity”. The same compound showed an IC50 in experiment [7] of 2 µM.
For `COc1cc2c(c(OC)c1OC)C(=O)/C(=C/c1cc(C)c(O)c(C)c1)C2`, the Cytotoxicity entry in [1], in experiment [2], in experiment [3], in [4], in experiment [5] and in experiment [6] was “Significant activity” in each case. In addition, the Cytotoxicity entry in experiment [8], in experiment [9], in experiment [10], in [11], in experiment [12] and in [13] was “Significant activity” each time. In addition, in [14], the Cytotoxicity result was “Significant activity”. The compound further displayed an IC50 in [7] of 0.125 µM.
In the case of `COc1cc2c(cc1OC)C(=O)/C(=C/c1cc(C)c(OC(C)=O)c(C)c1)C2`, the Cytotoxicity result in experiment [1], in experiment [2], in experiment [3], in [4], in experiment [5] and in [6] was “Significant activity” each time. The Cytotoxicity entry in [8], in [9], in experiment [10], in [11], in experiment [12] and in [13] was “Significant activity” throughout. Further, the Cytotoxicity entry in experiment [14] is “Significant activity”. Also, the IC50 in [7] is 0.4 µM.
For `COc1cc2c(cc1OC)C(=O)/C(=C/c1cc(C)cc(C)c1)CC2`, the Cytotoxicity result in [1], in experiment [2], in [3], in experiment [4], in [5] and in experiment [6] was “Significant activity” in each case. For the same compound, the Cytotoxicity entry in experiment [8], in experiment [9], in experiment [10], in experiment [11], in [12] and in [13] was “Significant activity” in each case. Further, the Cytotoxicity entry in experiment [14] is “Significant activity”. For the same compound, in [7], the IC50 stood at 4 µM.
Regarding `COc1cc2c(cc1OC)C(=O)/C(=C/c1cc(C)c(O)c(C)c1)CC2`, the Cytotoxicity entry in experiment [1], in experiment [2], in [3], in experiment [4], in experiment [5] and in experiment [6] was “Significant activity” throughout. In addition, the Cytotoxicity entry in experiment [8], in [9], in experiment [10], in experiment [11], in experiment [12] and in [13] was “Significant activity” throughout. Also, the Cytotoxicity result in experiment [14] is “Significant activity”. The compound further registered an IC50 in [7] of 4.8 µM.
On to `COc1cc2c(cc1OC)C(=O)/C(=C/c1cc(C)c(OCC(=O)O)c(C)c1)C2`, for which the Cytotoxicity result in experiment [1], in [2], in experiment [3], in experiment [4], in [5] and in experiment [6] was “Significant activity” throughout. In addition, the Cytotoxicity result in experiment [8], in experiment [9], in experiment [10], in experiment [11], in experiment [12] and in experiment [13] was “Significant activity” each time. In addition, the Cytotoxicity entry in experiment [14] is “Significant activity”. Moreover, inhibition in experiment [7] was half-maximal at 6.3 µM (IC50).
For the compound `COc1cc2c(c(N)c1OC)C(=O)/C(=C/c1cc(C)c(N)c(C)c1)C2`, the Cytotoxicity result in experiment [1], in experiment [2], in experiment [3], in experiment [4], in experiment [5] and in experiment [6] was “Significant activity” each time. Besides, the Cytotoxicity result in experiment [8], in experiment [9], in [10], in experiment [11], in experiment [12] and in [13] was “Significant activity” in each case. For the same compound, in [14], the Cytotoxicity result was “Significant activity”. The compound further returned an IC50 in experiment [7] of 0.0235 µM.
